Where two headings read alike, the source gives them in different places. *1 amine or outer side, *2 acyl side, *3 side chain or, on linkers, in order; H or OH if unused. Where a SMILES comes first, the peptide text is derived from it. Bridges are numbered along the chain shown (N, C = ends). Roman numbers before positions name the chains, in order. [ ]: non-standard residue; d: D form. ξ: configuration not given here. X9 = C#CCOCCOCCOCCOCCC(=O)N1C[C@@H](C(=O)[*:1])[C@H](C(=O)[*:2])C1; X4 = C#CCOCCOCCOCCOCCNC(=O)CN(CC(=O)[*:1])CC(=O)[*:2]; X3 = CCCCC[C@@H](O)[C@H](N[*:1])C(=O)[*:2]; Nle = CCCC[C@H](N)C(=O)O; ξF = NC(Cc1ccccc1)C(=O)O; Dab = NCC[C@H](N)C(=O)O; ξT = CC(O)C(N)C(=O)O; azaGly = NNC(=O)O
Tests used:
[1] = system: Ec 2469; type: cell-based, Escherichia coli
Experimental: (§1) Briefly, stock solutions of all antibacterial agents were prepared fresh in appropriate solvents (i.e. PBS, pH 7.4, DMSO, DI, etc.). Stock concentrations for drug conjugates were made at 12.5× the highest final assay concentration. All were serially diluted 2-fold, 8 or 12 times in a 96-well PCR plate (VWR cat. no. 83007-374). Bacterial cell suspensions generated from Mueller-Hinton agar (MHA) plate cultures were prepared in 0.85% saline and adjusted to ˜0.1 OD600 nm. […] For the conjugates, 92 μL of each cell suspension in RPMI B were added in the same 96-well plate assay format. […] Compounds were tested against a 14-strain panel comprised of E. coli (Ec), A. baumannii (Ab), P. aeruginosa (Pa), and K. pneumoniae (Kp) that were obtained from ATCC (Ec 25922, Ec 2489, Ab 19606, Pa 27853, Pa PAO1, Kp 43816, Kp 10031), Centers for Disease Control and Prevention (Ec AR0349), BEI Resources (Ab AB5075), Micromyx LLC (Ab 8990, Kp 6951), and Belgian Coordinated Collections of Microorganisms (Pa LES431) or generated in-house (Ec 25922 64X-1). […] E. coli strain ATCC 25922 and P. aeruginosa strain LES431 were run in the presence and absence of 50% heat-inactivated fetal bovine serum (FBS; Sigma, cat. no. F4135-100 mL). Plates were mixed by shaking then incubated at 35° C. overnight (16-20 h).

[2] = system: Ec 25922; type: cell-based, Escherichia coli
Experimental: as §1

[3] = system: Ec 25922 64X-1 (COL^R); type: cell-based, Escherichia coli; details: media CA-MHB
Experimental: (§2) Briefly, stock solutions of all antibacterial agents were prepared fresh in appropriate solvents (i.e. PBS, pH 7.4, DMSO, DI, etc.). Stock concentrations for drug conjugates were made at 12.5× the highest final assay concentration. All were serially diluted 2-fold, 8 or 12 times in a 96-well PCR plate (VWR cat. no. 83007-374). Bacterial cell suspensions generated from Mueller-Hinton agar (MHA) plate cultures were prepared in 0.85% saline and adjusted to ˜0.1 OD600 nm. Next, cell suspensions were diluted 1:200 in RPMI containing 5% Luria Broth (LB) to improve bacterial growth (BD Difco, cat. no. 244620) to a concentration of ˜5×10^5 CFU (colony-forming units)/mL. Due to poor solubility in Mueller-Hinton broth media, drug conjugates were evaluated in RPMI 1640 medium (+) L-glutamine, (+) sodium bicarbonate, pH 7.4 (“RPMI B”; Gibco, cat. no. 11875-085) as has been described as a more physiologically-relevant media for susceptibility testing of antibacterial compounds (1). For the conjugates, 92 μL of each cell suspension in RPMI B were added in the same 96-well plate assay format. […] Compounds were tested against a 14-strain panel comprised of E. coli (Ec), A. baumannii (Ab), P. aeruginosa (Pa), and K. pneumoniae (Kp) that were obtained from ATCC (Ec 25922, Ec 2489, Ab 19606, Pa 27853, Pa PAO1, Kp 43816, Kp 10031), Centers for Disease Control and Prevention (Ec AR0349), BEI Resources (Ab AB5075), Micromyx LLC (Ab 8990, Kp 6951), and Belgian Coordinated Collections of Microorganisms (Pa LES431) or generated in-house (Ec 25922 64X-1). […] E. coli strain ATCC 25922 and P. aeruginosa strain LES431 were run in the presence and absence of 50% heat-inactivated fetal bovine serum (FBS; Sigma, cat. no. F4135-100 mL). Plates were mixed by shaking then incubated at 35° C. overnight (16-20 h).

[4] = system: Ec AR0349 (mcr-1, COL^R); type: cell-based, Escherichia coli; details: media CA-MHB
Experimental: as §2

[5] = system: Ab 19606 (COLhet^R); type: cell-based, Acinetobacter baumannii; details: media CA-MHB
Experimental: as §2

[6] = system: Ab 8990 (COL^R); type: cell-based, Acinetobacter baumannii
Experimental: as §1

[7] = system: Ab AB5075; type: cell-based, Acinetobacter baumannii
Experimental: as §1

[8] = system: Pa 27853; type: cell-based, Pseudomonas aeruginosa
Experimental: as §1

[9] = system: Pa LES431; type: cell-based, Pseudomonas aeruginosa
Experimental: as §1

[10] = system: Pa PAO1; type: cell-based, Pseudomonas aeruginosa
Experimental: as §1

[11] = system: Kp 10031; type: cell-based, Klebsiella pneumoniae
Experimental: as §1

[12] = system: Kp 43816; type: cell-based, Klebsiella pneumoniae
Experimental: as §1

[13] = system: Kp 6951 (COL^R); type: cell-based, Klebsiella pneumoniae
Experimental: as §1

Measured: MIC

C#CCOCCOCCOCCOCCNC(=O)CN(CC(=O)N[C@@H](CCCC)C(=O)N[C@@H](CCN)C(=O)N[C@H](C(=O)NNC(=O)N[C@H]1CCNC(=O)[C@H]([C@@H](C)O)NC(=O)[C@H](CCN)NC(=O)[C@H](CCN)NC(=O)[C@H](CC(C)C)NC(=O)[C@@H](Cc2ccccc2)NC(=O)[C@H](CCN)NC1=O)[C@H](O)CCCCC)CC(=O)N[C@@H](CCCC)C(=O)N[C@@H](CCN)C(=O)N[C@H](C(=O)NNC(=O)N[C@H]1CCNC(=O)[C@H]([C@@H](C)O)NC(=O)[C@H](CCN)NC(=O)[C@H](CCN)NC(=O)[C@H](CC(C)C)NC(=O)[C@@H](Cc2ccccc2)NC(=O)[C@H](CCN)NC1=O)[C@H](O)CCCCC [Int-111] (I: [Nle][Dab][X3][azaGly][Dab][Dab][dF]L[Dab][Dab]T / II: [Nle][Dab][X3][azaGly][Dab][Dab][dF]L[Dab][Dab]T; lactam I:5-I:C, II:5-II:C; linker I:N-II:N via X4)
4 µg/mL: [1] | [2] | [3] | [4] | [5] | [7] | [8] | [9] | [11] | [12]
32 µg/mL: [6]
8 µg/mL: [10]; PAO1 | [13]

C#CCOCCOCCOCCOCCC(=O)N1C[C@@H](C(=O)N[C@@H](CCCC)C(=O)N[C@@H](CCN)C(=O)N[C@H](C(=O)NNC(=O)N[C@H]2CCNC(=O)[C@H]([C@@H](C)O)NC(=O)[C@H](CCN)NC(=O)[C@H](CCN)NC(=O)[C@H](CC(C)C)NC(=O)C(Cc3ccccc3)NC(=O)[C@H](CCN)NC2=O)[C@@H](C)O)[C@H](C(=O)N[C@@H](CCCC)C(=O)N[C@@H](CCN)C(=O)N[C@H](C(=O)NNC(=O)N[C@H]2CCNC(=O)C(C(C)O)NC(=O)[C@H](CCN)NC(=O)[C@H](CCN)NC(=O)[C@H](CC(C)C)NC(=O)[C@@H](Cc3ccccc3)NC(=O)[C@H](CCN)NC2=O)[C@@H](C)O)C1 (stereo partly shown) [Int-107] (I: [Nle][Dab]T[azaGly][Dab][Dab][dF]L[Dab][Dab][ξT] / II: [Nle][Dab]T[azaGly][Dab][Dab][ξF]L[Dab][Dab]T; lactam I:5-I:C, II:5-II:C; linker I:N-II:N via X9)
0.5 µg/mL: [2]; Ec 25922 + FBS (50%, heat-inactivated), media CA-MHB
4 µg/mL: [3]
16 µg/mL: [13]; Kp 6951 (COL^R), media CA-MHB
>128 µg/mL: [6]; Ab 8990 (COL^R), media CA-MHB
8 µg/mL: [9]; Pa LES431 + FBS (50%, heat-inactivated), media CA-MHB
2 µg/mL: [1]; Ec 2469, media CA-MHB | [2]; Ec 25922, media CA-MHB | [4] | [5] | [7]; Ab AB5075, media CA-MHB | [8]; Pa 27853, media CA-MHB | [9]; Pa LES431, media CA-MHB | [10]; Pa PAO1, media CA-MHB | [11]; Kp 10031, media CA-MHB | [12]; Kp 43816, media CA-MHB
